Data taken from publication PMC4895043, “Biological Activities of Aerial Parts Extracts of Euphorbia characias” (BioMed Research International, 2016).

Biological target: T1, HIV-1 RT (HIV-1 M:B_HXB2R, UniProt P04585)
T1 construct: gene gag-pol; mature RT cut from Gag-Pol polyprotein
Experiment: RNase H inhibition assay
Format: biochemical
Conditions: RNase H activity; read-out: IC50 (μg/mL)^∗ / HIV-1 / RNase H
Excerpt: RNase H inhibition assay on HIV-1 RT

RDS1759
IC50: 7.1 ± 0.5 µM
